From article PMC8073686, “Characterization of Subtype Selective Cannabinoid CB2 Receptor Agonists as Potential Anti-Inflammatory Agents” (Pharmaceuticals, 2021)

Columns and labels:
Jurkat cells = assay: CXCL12-mediated Jurkat cell transwell migration assay; format: cell-based, human; settings: 2 h pretreatment, 2 h migration
Procedure: During inflammation, immune cells are attracted by chemoattractants and migrate to the site of inflammation. Therefore, an inhibitory effect on chemotaxis of immune cells is also a sign of anti-inflammatory effect. We evaluated ABK5-1 and ABK5-2 to determine if these compounds can inhibit CXCL12-mediated Jurkat cell migration. Jurkat cells were incubated with various concentrations of ABK5-1 or 5-2 and loaded on the transwells and allowed to migrate through the transwells to the bottom chamber, which include CXCL12. The cell number in the bottom chamber was determined after 2 h of loading. ABK5-1 inhibited Jurkat cell migration at 10 and 25 μM (Figure 5A). […] Again, to verify these observations were not due to cytotoxicity of test compounds, cell viability was also monitored by incubating cells with compound and CXCL12 without the transwells.
Figure 5 Effect of ABK5-1 and ABK5-2 on CXCL12-mediated Jurkat cell migration. Transwell migration of Jurkat cells treated with (A,B) ABK5-1 or (C,D) ABK5-2. Frames (A,C): Cells were treated with vehicle or various concentrations of test compounds for 2 h and then allowed to migrate through transwells for 2 h. Cell numbers migrated to the lower chamber are indicated as relative to vehicle (DMSO) alone. Results are indicated as the mean ± S.D. of three independent assays performed in triplicate for each concentration. Viability of cells treated with (B) ABK5-1 or (D) ABK5-2 after the migration assay was also examined. Cells were treated exactly the same but without transwells and viability was determined. Results are indicated as the mean ± S.D. of three independent assays performed for each concentration. One-way ANOVA plus Dunnett’s post-hoc test were used for both migration and viability assays. **** p < 0.0001 (versus vehicle control group).
The migration assay was performed as described previously. Briefly, a Transwell Multiple Well Plate with permeable polycarbonate membrane inserts ([…], 24-well, Corning, Corning, NY, USA) were used in migration assays. Jurkat cells were seeded at 2.5 × 10^6 cells/mL in RPMI medium containing 2.5% FBS and treated with DMSO or test compound for 2 h. Then a sample of cells were transferred to the top well. RPMI medium containing 0 to 1000 ng/mL CXCL12 and the appropriate concentration of test compound was loaded to the bottom chamber. Cells were allowed to migrate for 2 h and cells migrated from the top well to the bottom chamber were counted or measured by CCK-8 (Dojindo Molecular Technologies, Inc., Rockville, MD, USA) following the manufacturer instructions. For evaluation of cell viability, the same procedure used for the migration assay was performed without the transwells and the viable cells were counted or measured by CCK-8.

IL-1β mRNA in BV-2 cells = assay: LPS-induced IL-1β mRNA in BV-2 cells; format: cell-based, murine; settings: 10 μM, 6 h LPS stimulation
Procedure: (§1) We stimulated BV-2 by lipopolysaccharide (LPS) and confirmed induction of pro-inflammatory cytokine IL-1β and IL-6 (data not shown). […] These effects were also confirmed by cytokine protein levels.
(§2) Figure 6 Effect of ABK5-1 on lipopolysaccharide (LPS)-induced cytokine production in microglia. BV-2 cells were pretreated with DMSO (<0.1%) or 1 or 10 μM ABK5-1 and stimulated with LPS. (A) mRNA levels of IL-1β and IL-6 after 6 h of LPS stimulation. (B) IL-1β protein concentration in the cell culture medium after 24 h of LPS stimulation. U.D. indicates under detection limit. (C) IL-6 protein concentration in the cell culture medium after 24 h of LPS stimulation. (D) Viability of BV-2 cells after ABK5-1 10 μM treatment. Results are indicated as the mean ± S.D. of three independent assays performed for each concentration. One-way ANOVA plus Dunnett’s post-hoc test were used and **** p < 0.0001 (versus reference). TEXT PRINTED IN THE PICTURE: (B) ABK5-1: IL-1β (pg/mL): U.D. (10 μM; LPS +)

IL-6 mRNA in BV-2 cells = assay: LPS-induced IL-6 mRNA in BV-2 cells; format: cell-based, murine; settings: 10 μM, 6 h LPS stimulation
Procedure: as §1, §2

[1] = test system: IL-1β production in BV-2 cells; assay: LPS-induced IL-1β protein in BV-2 culture medium; format: cell-based, murine; settings: 10 μM
Procedure: as §1, §2

[2] = test system: IL-6 production in BV-2 cells; assay: LPS-induced IL-6 protein in BV-2 culture medium; format: cell-based, murine; settings: 10 μM, 24 h LPS stimulation
Procedure: as §1, §2

SMILES: CCOC(=O)c1ccccc1NC(=O)CN(c1c(C)cccc1C)S(=O)(=O)c1ccccc1 [ABK5-2]
- decrease of cell migration (Jurkat cells; 10 μM): 32%
- decrease of cell migration (Jurkat cells; 25 μM): 32%

SMILES: CCOC(=O)c1ccccc1NC(=O)CN(c1ccc(C)cc1C)S(=O)(=O)c1ccccc1 [ABK5-1]
- decrease of cell migration (Jurkat cells; 10 μM): about 35%
- decrease of cell migration (Jurkat cells; 25 μM): ~43%
- decrease of IL-1β mRNA (IL-1β mRNA in BV-2 cells): 63%
- decrease of IL-6 mRNA (IL-6 mRNA in BV-2 cells): 48%
- IL-1β cytokine concentration in the culture medium (in words) ([1]; 24 h LPS stimulation): under the detection limit
- IL-1β ([1]; LPS +, 24 h, U.D. = under detection limit): U.D.
- decrease of IL-6 cytokine concentration in the culture medium [2]: 47%
